We go through 1 compound from patent publication US10206902B2, “Mono- or di-substituted indoles as dengue viral replication inhibitors” (priority 2014, dated 2019).

This data set in a line: Chiral stability of Enantiomer 1A at pH 7.4 (ee% by chiral SFC). The class given is physicochemical. The following applies: buffered solution pH 7.4, 5 μM. The procedure: The chiral stability of Enantiomer 1A (R═OMe) was evaluated by determination of the enantiomeric excess (ee %) after incubation for 24 h and 48 h in a buffered solution at pH 7.4 at 40° C. and 60° C. To assess the influence of the methoxy-substituent of Enantiomer 1A (R═OMe) on the stability against racemization, the chiral stability of Enantiomer 1′A (R═H) was tested under the same conditions.
To this end, 5 μM buffered (pH=7.4) solutions of 1A and 1′A were prepared by mixing 25 μL of a 100 μM solution of 1A or 1′A in DMSO with 475 μL aqueous buffer pH 7.4. Samples were taken 24 h and 48 h after incubation at 40° C. and 60° C. The analytical samples were analyzed by Chiral SFC (MS detection) and the chiral purity was expressed as the enantiomeric excess (ee %=% enantiomer A−% enantiomer B).

Consider `COc1cc(NC(C(=O)c2c[nH]c3cc(F)ccc23)c2ccc(F)cc2OC)cc(OCCO)c1` (single isomer, unassigned) [Compound 1A, 1-(6-fluoro-1H-indol-3-yl)-2-(4-fluoro-2-methoxyphenyl)-2-((3-(2-hydroxyethoxy)-5-methoxyphenyl)amino)ethanone], for which the “ee% (enantiomeric excess)” value (40° C., 24 h) turned out to be 100%; the “ee% (enantiomeric excess)” value (40° C., 48 h) worked out at 100%; the “ee% (enantiomeric excess)” value (60° C., 24 h) worked out at 100%; the “ee% (enantiomeric excess)” value (60° C., 48 h) came to 96%.
